Assay [1] has as its target T1, PBP3 (penicillin-binding protein 3, PBP3*) (Streptococcus pneumoniae, UniProt Q8DQ99).
T1 construct: gene dacA; soluble truncated PBP3 (Gly15-Lys394), N-terminal hexa-His tag kept, synthetic gene, expressed in E. coli BL21*(DE3) pLysS, Ni-NTA purified; captured on anti-His antibody
T1 sequence (Q8DQ99 15-394): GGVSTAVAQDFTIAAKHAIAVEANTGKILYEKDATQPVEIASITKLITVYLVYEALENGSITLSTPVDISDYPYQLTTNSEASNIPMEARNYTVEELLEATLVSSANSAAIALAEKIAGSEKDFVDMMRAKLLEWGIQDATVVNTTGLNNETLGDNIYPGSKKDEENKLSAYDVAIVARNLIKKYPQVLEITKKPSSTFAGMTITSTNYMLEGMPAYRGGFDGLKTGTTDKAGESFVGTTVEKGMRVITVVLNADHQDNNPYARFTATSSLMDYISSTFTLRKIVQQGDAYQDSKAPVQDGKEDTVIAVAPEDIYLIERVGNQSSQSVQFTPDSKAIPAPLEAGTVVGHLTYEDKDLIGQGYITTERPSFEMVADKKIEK
Briefly: competitive enzyme-linked assay on electrochemical microfluidic chip, avidin-glucose oxidase readout. An excerpt: competitive enzyme-linked assay on electrochemical microfluidic chip, avidin-glucose oxidase readout on PBP3 (penicillin-binding protein 3, PBP3*)

Assay [2] has as its target T1, PBP3 (penicillin-binding protein 3, PBP3*). The assay is described as follows: competitive enzyme-linked assay on microtiter plate, optical readout. As to conditions: competition with ampicillin-biotin conjugate.

Molecules are shown by their SMILES. Read-outs that look alike come from different tables or passages of the source.

As to `CO/N=C(\C(=O)N[C@@H]1C(=O)N2C(C(=O)O)=C(COC(N)=O)CS[C@H]12)c1ccco1` [cefuroxime], the IC50 in assay [1] (read-out: Cefuroxime (converted)) is 26.1 nM. For the molecule `CC1(C)S[C@@H]2[C@H](NC(=O)[C@H](N)c3ccccc3)C(=O)N2[C@H]1C(=O)O` [ampicillin], the “competitive enzyme-linked assay on microtiter plate, optical readout” value in assay [2] is “confirmed via the optical quantification of ampicillin on a microtiter plate”.

On to `CCN1CCN(C(=O)N[C@@H](C(=O)N[C@@H]2C(=O)N3[C@@H]2SC(C)(C)[C@@H]3C(=O)O)c2ccccc2)C(=O)C1=O` [piperacillin], for which the IC50 in assay [1] (read-out: Piperacillin (converted)) was 35.5 nM. For `Cc1nnc(SCC2=C(C(=O)O)N3C(=O)[C@@H](NC(=O)Cn4cnnn4)[C@H]3SC2)s1` [cefazolin], the IC50 in assay [1] (read-out: Cefazolin (converted)) was 19.2 nM.
